{"source": "paper PMC8400257", "about": "“2-Phenoxy-3-Trichloromethylquinoxalines Are Antiplasmodial Derivatives with Activity against the Apicoplast of Plasmodium falciparum” (Pharmaceuticals, 2021)", "key": {"[1]": {"test_system": "primary human hepatocytes", "test": "Hepatotoxicity by count of DAPI-stained hepatocyte nuclei", "type": "cell-based", "conditions": "dose range up to 30 µM", "experimental": "Finally, we studied the hepatotoxicity of (3i). This was carried out by quantification of DAPI-stained hepatocyte nuclei in culture wells. Generally, if a drug is hepatotoxic, it causes death and detachment of hepatocytes leading to less hepatocyte nuclei counts.\nUpon immunostaining of parasites, the study plates were scanned using a CellInsight high-content screening platform equipped with the Studio HCS software (Thermo Fisher Scientific, Waltham, MA, USA). The details of analysis is provided elsewhere. The number of host hepatocyte nuclei per well was counted by the system as a measure of toxicity of 3i towards the liver cells."}, "[2]": {"test": "In vitro cytotoxicity evaluation HepG2 (MTT)", "type": "cell-based, human", "conditions": "human, CC50 HepG2 (µM) ± SD", "experimental": "For all molecules, the selectivity index was calculated as following SI = CC50/EC50.\nTriplicate assays were performed for each sample. Each plate-well was then microscopically examined for possible precipitate formation before the medium was aspirated from the wells. Next, 100 µL of MTT (3-(4,5-dimethyl-2-thiazolyl)-2,5-diphenyl -2H-tetrazolium bromide) solution (0.5 mg/mL in medium without FBS) was added to each well. […] After this time, the MTT solution was removed and DMSO (100 μL) was added to dissolve the resulting blue formazan crystals. Plates were shaken vigorously (700 rpm) for 10 min. The absorbance was measured at 570 nm with 630 nm as reference wavelength using a BIO-TEK ELx808 Absorbance Microplate Reader (LabX, Midland, ON, Canada). DMSO was used as blank and doxorubicin (purchased from Sigma Aldrich) as positive control. Cell viability was calculated as a percentage of control (cells incubated without compound). […] CC50 values to represent the mean value calculated from three independent experiments."}, "[3]": {"test_system": "P. falciparum (NF135 strain) hepatic exoerythrocytic forms", "test": "Liver stage development in infected primary human hepatocytes", "type": "cell-based, Plasmodium falciparum", "experimental": "The effect of (3i) on the hepatic stage of P. falciparum was next studied in order to know if (3i) was active against another stage of P. falciparum cycle. Cryopreserved primary human hepatocytes were infected with 30,000 freshly extracted P. falciparum sporozoites and simultaneously treated with a dose range (0.9–30 µM) of (3i). Atovaquone (ATQ) was used as a positive parasite-killing control at 25 nM.\nP. falciparum (NF135 strain) sporozoites were isolated by dissection of the salivary glands of infected A. stephensi 14–21 days after an infective blood meal (Department of medical microbiology, University Medical Centre, St Radboud, Nijmegen Netherland). All infected salivary glands were removed by hand dissection, crushed in a potter for sporozoites isolation, and filtrated through a 40 μm filter to remove mosquito debris (Cell Strainer, BD BioSciences, Franklin Lakes, NJ, USA). The sporozoites were counted using a disposable Glasstic microscope slide (KOVA, Garden Grove, CA, USA).\nOne day before hepatocyte thawing, 96-well plates were coated by a Corning®® collagen solution (50 µg/mL rat tail type I collagen in 0.02N acid acetic) over night at room temperature. The next day, the wells were washed twice by PBS solution. Cryopreserved primary human hepatocytes (LONZA, Basel, Swiss) were seeded in 96-well plates with a pre-determined seeding dose that gave a single dense layer of attached hepatocytes. Four days post-seeding, each plate well was infected with 30,000 freshly extracted Plasmodium falciparum sporozoites. […]\nHepatocyte cultures were fixed with 4% paraformaldehyde solution (PFA, Invitrogen) for 10 min. […] Images were analyzed and prepared with ImageJ software. Apicoplast morphology was observed and quantified by eye under a confocal microscope.\nUpon immunostaining of parasites, the study plates were scanned using a CellInsight high-content screening platform equipped with the Studio HCS software (Thermo Fisher Scientific, Waltham, MA, USA). […] The number of host hepatocyte nuclei per well was counted by the system as a measure of toxicity of 3i towards the liver cells. […]"}, "[4]": {"test_system": "P. falciparum ART-sensitive strain F32-TEM", "test": "Standard in vitro chemo-sensitivity assay, F32-TEM", "type": "cell-based", "conditions": "Plasmodium falciparum, F32, 48 h, read-out: Mean ± SEM EC50 values F32-TEM", "experimental": "The Plasmodium falciparum ART-resistant strain F32-ART5 and its tween ART-sensitive strain F32-TEM [33, 41] were cultivated at 37 °C with 5% CO2 in human red blood cells (EFS, French Blood Bank) diluted to 2% hematocrit in RPMI-1640 medium (Biowest, Nuaillé, France) supplemented with 5% human serum (EFS, French Blood Bank), as previously reported.\nThe chemosensitivity assay was carried out in 96-well culture plates on synchronized ring-stage parasites at 1% parasitemia obtained after D-sorbitol treatment. The antiplasmodial activities were evaluated using the SYBR Green I method. Parasites were exposed for 48 h to a range of concentrations of the different tested compounds. Each drug concentration was tested in triplicates. Parasite pellets were then washed in 1× PBS prior to lysing red blood cells at −20 °C overnight. Then, the plates were thawed and 100 µL of each well were transferred into a black 96-well plate. Next, 100 µL per well of SYBR Green I (Thermo Fisher) diluted at a final concentration of 2× in lysis buffer (20 mM Tris base pH 7.5, 5 mM EDTA, 0.008% w/v saponin, 0.08% w/v Triton X-100) were added and left to incubate for 1 h at room temperature prior to reading the plates on BioTek FLx800 Microplate Fluorescence Reader (λexcitation = 485 nm, λemission = 528 nm). Relative EC50 values were determined using GraphPad Prism software."}}, "note": "Entries after “also recorded” stand apart in the source; their conditions may differ.", "data": [{"compound": "O=[N+]([O-])c1ccc(Oc2nc3ccccc3nc2C(Cl)(Cl)Cl)cc1", "note": "[3i, 2-(4-Nitrophenoxy)-3-trichloromethylquinoxaline]", "values": [{"measurement": "Cytotoxicity on human hepatocytes (hepatocyte nuclei counts)", "setting": "[1]", "value": "no cytotoxicity on human hepatocytes; also recorded: no cytotoxicity was observed"}, {"measurement": "CC50 at 72 h", "setting": "[2]", "value": "32 ± 6.1", "unit": "µM"}, {"measurement": "Effect on exoerythrocytic forms (EEF or schizont) size and numbers", "setting": "[3]; 3i 0.9-30 µM, ATQ 25 nM, 6 or 12 days post-infection", "value": "not observe a significant effect on parasite growth; also recorded: no effect"}, {"measurement": "Effect on the apicoplast in the hepatic stage", "setting": "[3]; up to 30 µM, day 6 post-infection", "value": "quite not affected"}, {"measurement": "EC50", "setting": "[4]", "value": "0.392 ± 0.034", "unit": "µM"}]}]}
